The source of these data is PubChem BioAssay AID977625 (Broad Institute, 2014).

As usually defined, the AC50 is the concentration giving half of the maximal activity seen.

Experiment [1] deals with E. coli h34-humanized GFP strain growth, fluorescence, 24 h. The experiment is described as follows: growth inhibition of h34-humanized E. coli versus wild-type, dose response, h34 mutant GFP vs wild-type RFP, cherry-pick, OD600 (AID 977625).
Experiment [2] deals with E. coli mixed culture (wild-type RFP + h34-humanized GFP), total OD600 growth, 24 h. Described as above. The note with it: E. coli h34-humanized GFP strain growth, fluorescence, 24 h; measured here: total culture OD600 growth.
Experiment in experiment [3]: as above
The note with it: E. coli h34-humanized GFP strain growth, fluorescence, 24 h; at 50 µM (top of the series).

Inconclusive results are not listed. Active and inactive are the calls of the source.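 How the source made its calls: active means red signal from normal-ribosome E. coli cut at least twice as much as green humanized-ribosome signal, growth cut under 30%; inconclusive means no clear call, values can overlap the other calls; inactive means the rest.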 Bounds are passed on as bounds.

As for `COc1ccc(-n2cc(-c3ccccc3)c3c(N4CCOCC4)ncnc32)cc1`, the AC50 was > 100 µM (inactive) in experiment [1] and 42.2 µM in experiment [2].

Consider `Cc1ccc(S(=O)(=O)N2CC[C@H]3[C@H](CO)Nc4ccc(Br)cc4[C@H]32)cc1`, for which, in experiment [3], the activity change, negative = inhibition is 7.09 (inactive).

Turning to `CCn1c(-c2cc(-c3ccc(OC(C)C)cc3)nc3ccccc23)n[nH]c1=S`, the AC50 in experiment [1] is > 100 µM (inactive).

On to `COc1ccc2[nH]c3c(=O)n(CCCCC(=O)NCCC(C)C)c(=S)[nH]c3c2c1`, for which the activity change, negative = inhibition in experiment [3] is -5.72 (inactive).

As for `CC1(Cc2ccccc2C#N)C(=O)Nc2cc(-c3ccccc3Cl)ccc21` (stereo unspecified), in experiment [2], the AC50 stood at 24.8 µM.

On to `COc1ccc(Cn2c(-c3ccc(Cl)cc3)c[n+]3ccccc23)cc1`, for which the activity change, negative = inhibition in experiment [3] is 30.2 (inactive).

Consider `C[C@@H]1CCCCO[C@H](CN(C)C(=O)CCCN(C)C)[C@H](C)CN([C@@H](C)CO)C(=O)c2cc(NC(=O)Nc3cccc4ccccc34)ccc2O1`, for which the activity change, negative = inhibition in experiment [3] was 21.7 (inactive). Besides, the AC50 in experiment [2] was over 100 µM.

For `Cc1ccc(C)c(NC(=O)CSc2nc3nc(-c4cccs4)cc(C(F)(F)F)c3c(=O)[nH]2)c1`, the activity change, negative = inhibition in experiment [3] was -48.2 (inactive). Further, the AC50 in experiment [2] is 36.2 µM.

For the compound `COc1cccc(C(=O)Nc2cc(C)nn2-c2ccccc2)c1OC`, the activity change, negative = inhibition in experiment [3] is 18.9 (inactive). In addition, the AC50 in experiment [2] is over 100 µM.

Turning to `O=C(O)c1cc([N+](=O)[O-])ccc1NCc1ccccc1`, the AC50 in experiment [2] turned out to be 20.1 µM.

For `COc1cc2c(cc1[N+](=O)[O-])-c1ccc([N+](=O)[O-])cc1C2`, the activity change, negative = inhibition in experiment [3] is -48.1 (inactive). Further, the AC50 in experiment [2] was 0.378 µM.

For `Cc1noc(C)c1NC(=O)Nc1ccc2c(c1)C(=O)N([C@H](C)CO)C[C@@H](C)[C@@H](CN(C)C(=O)Nc1ccc3c(c1)OCO3)OCCCC[C@@H](C)O2`, in experiment [3], the activity change, negative = inhibition was 0.093 (inactive).

As for `CCOC(=O)c1c(NC(=O)Cc2cccs2)sc(C)c1C`, the activity change, negative = inhibition in experiment [3] is 12.4 (inactive). In addition, the AC50 in experiment [2] is over 100 µM.

`CCN(CC)CCn1c2ccccc2c2nc3ccc([N+](=O)[O-])cc3cc21`: the AC50 was 1.39 µM (inactive) in experiment [1] and 4.35 µM in experiment [2].
